Data on one compound can be found in patent US5416090A, “Method of treating inflammation” (priority 1992, dated 1995).

Assay [1] concerns 5-HT induced paw swelling. The assay is described as follows: Serotonin (5-HT) induced acute paw inflammation. The class given is in vivo, rat (Lewis). The protocol:
(§1) In one such model, the acute paw inflammation model, rats were treated with test compounds one hour prior to plantar injection of a 50 μl volume of a phlogistic. Animals were sacrificed and paw weights were determined at a prescribed time interval following the plantar injections. When 1% carrageenan was used as the phlogistic, the time interval between injection and sacrifice was 3 hours. When serotonin (5-hydroxytryptamine (5-HT)) was used, as the phlogistic agent the time interval was one hour. When substance P was used, the time interval was 30 minutes. The acute paw inflammation model is described in more detail in Example 3.
(§2) Male Lewis rats (Charles River or Harlan Sprague Dawley) weighing 180 to 250 g were used in all acute inflammatory studies. Animals were maintained on a 12:12 hour light:dark cycle and were allowed ad lib access for food (Purina lab chow) and water. Experimental groups consisted of 5 or 6 rats.
Acute paw swelling was induced by the intraplantar injection of phlogistic agents into the left hind paw, with the uninjected right hind paw serving as the comparative control. One hour after dosing with test compound, 50 μl of serotonin (Sigma; 0.005 to 0.2 mg/ml in normal saline) or substance P (Sigma; 0.01 or 0.05 mg/ml in 10% thiorphan in normal saline) or carrageenan (Marine Colloidal or Sigma Type IV; 1% in normal saline) were injected under the skin of the left hind paw, while the animal was restrained in a plastic cone. Negative controls were given 50 μl intradermal injections of normal saline (serotonin or carrageenan assays) or 10% thiorphan (substance P assays) into the left hind paw. One hour following injection of serotonin, or 30 minutes following injection of substance P, or 180 minutes following injection of carrageenan, the animals were sacrificed by CO2 asphyxiation. The right and left hind paws were cut just proximal to the tibiotarsal joint and weighed. The difference in weight between an individual animal's left and right paws were used as an indicator of tissue swelling.
As indicated above, test compounds are administered as a one hour pretreatment. In one series of experiments, 24 hour and 48 hour drug pretreatment periods were used. Test compounds were dosed intraperitoneally as a suspension in 1% carboxymethylcellulose.

A further assay concerns corticosterone. The assay is described as follows: Serum/plasma corticosterone levels in mice. The class given is in vivo, mouse (Balb/C). The following applies: FIG. 10 Panel A; 1 and 3 hr. following injection. From the text:
Dopamine agonists are known to elevate circulating glucocorticoid levels, via activation of the hypothalamo-pituitary-adrenal axis. […] Since glucocorticoids are potential endogenous anti-inflammatory substances, this action is one potential mechanism for the anti-inflammatory effect of the ergolines. However, in subsequent inflammation studies, the anti-inflammatory effects of D-1-isopropyl-6-n-propyl-8β-methylthiomethyl ergoline were retained in mice lacking an adrenal gland and therefore devoid of the increase in circulating corticosterone. (FIG. 10B)
(§3) Both Balb/C mice (male, approximately 20 g, Charles Rivers) and Lewis rats (male, approximately 200 g, Charles River or Harlan Sprague Dawley) were used in neuroendocrine studies. Animals were maintained on a 12:12 hour light:dark cycle and were allowed ad lib access for food (Purina lab chow) and water. Experimental groups consisted of 6 to 8 animals.
After dosing with test compounds, animals were sacrificed by decapitation at 1, 3, 8 or 24 hour intervals. Trunk blood was collected, allowed to clot and serum obtained after centrifugation (3000 rpm for 15 min.). Serum was aliquoted and stored at -70° C. for subsequent radioimmunoassays. Serum prolactin was determined by radioimmunoassay. Serum corticosterone levels were determined with a kit designed for such determinations and obtained from ICN.

Assay [2] concerns graft versus host response (splenomegaly). Format: in vivo, mouse (B6C3F1). The following applies: FIG. 13, 10 daily doses.
Assay [3] concerns substance P induced paw swelling. As to the kind of experiment: Substance P induced acute paw inflammation. The following applies: pre-treated with 3 mg/kg. The class given is in vivo, rat (Lewis). The protocol: as §1, §2
Acute paw swelling was induced by the intraplantar injection of phlogistic agents into the left hind paw, with the uninjected right hind paw serving as the comparative control. […]

Assay [4] concerns carrageenan induced paw swelling. The assay is described as follows: Carrageenan edema model (acute paw inflammation). The class given is in vivo, rat (Lewis). The following applies: Rattus norvegicus, ip; read-out: ED50, inhibition of carrageenan induced paw swelling. A general note: Carrageenan injected into the paw causes an acute inflammation.
The test system of assay [5] is serum prolactin. As to the kind of experiment: Serum prolactin levels in rats. Format: in vivo, rat (Lewis). The following applies: FIG. 11, 0.3, 3 and 30 mg/kg, 1 hour post-treatment. As for the experimental part:
(§4) A further mechanistic study wherein rat serum prolactin levels were quantitated 1 hour post-treatment with varying doses of D-1-isopropyl-6-n-propyl-8β-methylthiomethyl ergoline is summarized in FIG. 11. […] A time course/dose response study of D-1-isopropyl-6-n-propyl-8β-methylthio-methyl ergoline effects on murine serum prolactin levels is presented in FIG. 12. […] There is however a disparity between the suppression of prolactin and anti-inflammatory activities of the ergolines with regard to the dose response profiles. Serum prolactin levels are much more sensitive to D-1-isopropyl-6-n-propyl-8β-methylthiomethyl ergoline (maximal suppression ~≤0.1 mg/kg) than are the anti-inflammatory effects 3-10 mg/kg, See FIG. 5).
as §3
(§5) After dosing with test compounds, animals were sacrificed by decapitation at 1, 3, 8 or 24 hour intervals. […] Serum prolactin was determined by radioimmunoassay. Serum corticosterone levels were determined with a kit designed for such determinations and obtained from ICN.

The subject of assay [6] is serum prolactin. The assay is described as follows: Serum prolactin levels in mice, time course. Format: in vivo, mouse (Balb/C). The protocol: as §4, §3, §5
Assay [7] concerns dopamine receptor (DTH response). The assay is described as follows: Reversal of DTH inhibition by dopamine receptor antagonists. Format: in vivo, mouse. The following applies: FIG. 9 Panels B, C legend; pretreated with domperidone or sulpiride. The protocol:
Male Balb/c mice (Charles River) weighing 20 to 25 g were used in all DTH studies. When adrenalectomized studies were carried out, sham surgery and adrenalectomized mice were obtained from the vendor. Animals were maintained on a 12:12 hour light:dark cycle. Mice were allowed ad lib access for food (Purina lab chow) and water (normal saline for adrenalectomized animals).
A DTH response was assessed by measuring the degree of rear foot pad swelling induced by picryl chloride. On day 0, mice were sensitized with 100 μl of 5% picryl chloride (in ethanol), which was applied to a shaved abdomen. Negative control groups were shaved but not sensitized. On day 3, mice were anesthetized with methoxyflurane, and the baseline rear foot pad thickness was measured with a micrometer (Mitutoyo) in μ, and was recorded in duplicate. Fifty μl of picryl chloride was then applied to each pad with a pipet (Rainen) while the animal was unconscious. The negative controls also received picryl chloride at this point to control for primary irritancy. Twenty-four hours later, the mice were sacrificed by CO2 asphyxiation and each rear foot pad was again measured in duplicate, and any evidence of foot pad swelling was calculated. The mean rear foot swelling change of both pads for each animal from days 3 to 4 was used as the index of immune function in the DTH assay.
Unless otherwise stated all animals were given four subcutaneous doses of test compound just prior to picryl chloride sensitization on day 0, on day 1 and day 2, and just prior to picryl chloride challenge on day 3. In a few experiments, compounds were administered via oral or intraperitoneal routes. All drugs were delivered as suspensions in 1% carboxy-methylcellulose (also contained 0.8% NaCl, 1% polysorbate-80, 1.4% benzyl alcohol). Carboxymethyl-cellulose (1%) was used in control injections.

Setting [8] is: listed as D-1-isopropyl-6-n-propyl-8β-methylthiomethyl ergoline.

The structures appear in SMILES notation. Where two headings read alike, the source gives them in different places.

Broadly, the ED50 is the dose that gives a 50% effect, or the effect in half of the subjects. Turning to `CCCN1C[C@H](CSC)C[C@@H]2c3cccc4c3c(cn4C(C)C)C[C@H]21` [Compound 1, D-1-isopropyl-6-n-propyl-8β-methylthiomethyl ergoline], the “reduction in paw swelling” value in assay [1] (3 mg/kg dosed 24 hours prior to phlogistic challenge) and in assay [1] (3 mg/kg dosed 48 hours prior to phlogistic challenge) was “significant reduction in paw swelling” in each case. For the same compound, the “effect on 5-HT induced paw swelling” value in assay [1] (FIG. 2) is “Inhibitory effect”. In assay [1] (FIG. 3), the “duration of anti-inflammatory effect” value is recorded as “longlasting”. Besides, in assay [1] (FIG. 3, serotonin 0.2 mg/kg, 1, 24 and 48 hour following a single injection), the “inhibition of serotonin induced paw swelling” value is reported as “Inhibition”. In addition, in assay [1] (Rattus norvegicus, ip, read-out: lowest stated dosage with a significant reduction in paw swelling), the minimal effective dose is 0.1 mg/kg. For the same compound, in the assay on corticosterone, the “effect on plasma corticosterone” value is “increase plasma cortiosterone”. For the same compound, the “immunosuppressive activity / effect on GVH splenomegaly” value in assay [2] (listed as D-1-isopropyl-6-n-propyl-8β-methyl-thiomethyl ergoline) is listed as “unaffected”; in assay [2] (setting [8]), “no immunosuppressive activity”; in assay [2] (listed as compound 1), “Lack of effect”. Besides, in assay [3] (Substance P 0.01 mg/ml, untreated 174 ±18 mg), the “increase in paw weight after substance P” value is 38 ± 11 mg. In addition, the “reduction of substance P induced increase in paw weight” value in assay [3] (p<0.05) was 49%. Further, in assay [4], the ED50 was ~0.3 mg/kg. Also, the results for the serum prolactin levels entry with serum prolactin [5] (setting [8]) and in the assay with serum prolactin [5] (listed as compound 1) were “dramatically reduced serum prolactin levels” and “Suppression of serum prolactin levels”, respectively. In addition, in the assay with serum prolactin [6] (FIG. 12, single injection), the “duration of effect on serum prolactin” value is recorded as “particularly long lasting effects”. In the assay with serum prolactin [6] (Mus musculus, compared with anti-inflammatory doses, read-out: dose for maximal suppression of serum prolactin), the ED (maximal) is ≤ 0.1 mg/kg. Also, the “reversal of DTH inhibition by antagonist pretreatment” value in assay [7] is given as “reversal of inhibition of the DTH”.
